Test system: 3T3-L1 adipocytes
Experiment: Oil Red O staining of triglyceride content (lipogenesis) in differentiating 3T3-L1 adipocytes
Assay type: cell-based, murine
Details: for increase in triglyceride content (lipogenic/adipogenic increase) relative to the solvent control: 50 μg test material/mL, Day 0 to Day 7 of differentiation
Excerpt: The Model—The 3T3-L1 murine fibroblast model is used to study the potential effects of compounds on adipocyte differentiation and adipogenesis.
As preadipocytes, 3T3-L1 cells have a fibroblastic appearance. They replicate in culture until they form a confluent monolayer, after which cell-cell contact triggers Go/G1 growth arrest. Terminal differentiation of 3T3-L1 cells to adipocytes depends on proliferation of both pre- and postconfluent preadipocytes. Subsequent stimulation with 3-isobutyl-1-methylxanthane, dexamethasone, and high dose of insulin (MDI) for two days prompts these cells to undergo postconfluent mitotic clonal expansion, exit the cell cycle, and begin to express adipocyte-specific genes. Approximately five days after induction of differentiation, more than 90% of the cells display the characteristic lipid-filled adipocyte phenotype.
Cell culture and Treatment—The murine fibroblast cell line 3T3-L1 was obtained from the American Type Culture Collection (Manasus, Va.) and sub-cultured according to instructions from the supplier. For experiments, cells were cultured in DMEM containing 10% FBS-HI, with added 50 units penicillin/mL and 50 μg streptomycin/mL, and maintained in log phase prior to experimental setup. Cells were grown in a 5% CO2 humidified incubator at 37° C. Components of the pre-confluent medium included (1) 10% FBS/DMEM containing 4.5 g glucose/L; (2) 50 U/mL penicillin; and (3) 50 μg/mL streptomycin. Growth medium was made by adding 50 mL of heat inactivated FBS and 5 mL of penicillin/streptomycin to 500 mL DMEM. This medium was stored at 4° C. Before use, the medium was warmed to 37° C. in a water bath.
3T3-T1 cells were seeded at an initial density of about 4×10^4 cells/cm^2 in 24-well plates. For two days, the cells were allowed to grow to reach confluence. Following confluence, the cells were forced to differentiate into adipocytes by the addition of differentiation medium; this medium consisted of (1) 10% FBS/DMEM (high glucose); (2) 0.5 mM methylisobutylxanthine; (3) 0.5 μM dexamethasone and (4) 10 Hg/mL insulin. After three days, the medium was changed to post-differentiation medium consisting of 10 μg/mL insulin in 10% FBS/DMEM.
Test material was added in dimethyl sulfoxide at Day 0 of differentiation and every two days throughout the maturation phase (Day 7). Whenever fresh media was added, fresh test material was also added. As a positive control, troglitazone was added to achieve a final concentration of 4.4 μg/mL (10 μM). Metformin, Sample A and the metformin/Sample A combinations of 1:10, 1:5 and 1:2.5 were all tested at 50 μg test material/mL. Metformin, Sample B and the metformin/Sample B combination of 1:10 were all tested at 50 μg test material/mL.

Row | Compound | increase in triglyceride content (lipogenic/adipogenic increase) relative to the solvent control | increase in triglyceride content (lipogenic/adipogenic increase) relative to the solvent control (listed as glipizide) | increase in triglyceride content of the 3T3-L1 cells (positive control, 4.4 μg/mL (10 μM), Day 0 to Day 7, relative to solvent control) [%]
1 | Cc1cnc(C(=O)NCCc2ccc(S(=O)(=O)NC(=O)NC3CCCCC3)cc2)cn1 [Glipizide] | 40% | increased triglyceride biosynthesis | –
2 | Cc1c(C)c2c(c(C)c1O)CCC(C)(COc1ccc(CC3SC(=O)NC3=O)cc1)O2 (stereo not shown) [Troglitazone, troglitazone] | – | – | 54
3 | CN(C)C(=N)N=C(N)N [metformin] | four | – | –

— patent US20060286182A1, “Synergistic cinnamon combinations and methods for enhancing insulin activity” (Abeille Pharmaceuticals, Inc., priority 2005, published 2006)
